According to patent US11795152B2, “Crystal form of tafamidis and preparation method therefor and use thereof” (CRYSTAL PHARMACEUTICAL (SUZHOU) CO., LTD., priority 2019, dated 2023):
“Also recorded” adds a separate entry of the source.

Tests used:
Format in all cases: physicochemical
[1] = Stability of drug substance on storage (XRPD, HPLC purity); details: for chemical purity during storage: drug substance
From the text: Crystalline form and chemical impurity were checked by XRPD and HPLC, respectively.
Crystalline form and purity were checked by XRPD and HPLC, respectively.

[2] = Grinding stability (XRPD before and after grinding); details: manually ground in the mortar for five minutes
From the text: A certain amount of Form CSV and WO2016038500 Form 1 were manually ground in the mortar for five minutes.

[3] = Compressibility (manual tablet press, tensile strength); details: 80 mg, φ6 mm round tooling, 10 KN; for Hardness: 24 hours recovery; for Tensile strength: T=2H/πDL*9.8
Method: An ENERPAC manual tablet press was used for tableting. […] Diameter (D) and thickness (L) were tested with a caliper. Hardness (H) was tested with an intelligent tablet hardness tester. Tensile strength of the powder was calculated with the following formula: T=2H/πDL*9.8. Under a certain force, the greater the tensile strength, the better the compressibility.
Diameter (D) and thickness (L) were tested with a caliper. Hardness (H) was tested with an intelligent tablet hardness tester. Tensile strength of the powder was calculated with the following formula: T=2H/πDL*9.8. Under a certain force, the greater the tensile strength, the better the compressibility.

[4] = Hygroscopicity by dynamic vapor sorption (DVS); details: 80% RH
Method: Dynamic Vapor Sorption (DVS) is measured via a SMS (Surface Measurement Systems Ltd.) intrinsic DVS instrument. Its control software is DVS-Intrinsic control software. Typical parameters for DVS tests are as follows:
Gas and flow rate: N2, 200 mL/min
RH range: 0% RH to 95% RH
The weight gains at each relative humidity were recorded in a cycle of 0-95%-0 RH. The XRPD patterns were collected before and after the DVS test and depicted in FIG. 11.
Description and definition of hygroscopicity (general notice 9103 drug hygroscopicity test guidelines in 2015 edition of Chinese Pharmacopoeia, test at 25° C.+/−1° C., 80% RH. The definition of hygroscopicity in the 9th European Pharmacopoeia 5.11 is in consistent with the Chinese Pharmacopoeia.). • deliquescent: sufficient water is absorbed to form a solution. • very hygroscopic: increase in mass is equal to or greater than 15 percent. • hygroscopic: increase in mass is less than 15 percent and equal to or greater than 2 percent. • slightly hygroscopic: increase in mass is less than 2 percent and equal to or greater than 0.2 percent. • non hygroscopic or almost non hygroscopic: Increase in mass is less than 0.2%.
The weight gains at each relative humidity were recorded in a cycle of 0-95%-0RH. The XRPD patterns were collected before and after the DVS test and depicted in FIG. 22. […] Form CSVI is slightly hygroscopic.
The weight gains at each relative humidity were recorded in a cycle of 0-95%-0RH. The XRPD patterns were collected before and after the DVS test and depicted in FIG. 31.

[5] = Stability of Form CSV in drug product; details: for Purity % / Solid Form: drug product
From the text: X-ray powder diffraction patterns of drug product stability study in the present disclosure were acquired by a Bruker D8 Discover X-ray powder diffractometer. The parameters of the X-ray powder diffraction method of the present disclosure are as follows:
The XRPD patterns were collected before and after the formulation process.

[6] = Dissolution profile of capsules in pH6.8 PBS; details: capsule 61 mg, paddle 50 rpm, 37° C.
Method: The cumulative dissolution was measured at different time in pH6.8 PBS.

[7] = Dissolution profile of tablets in pH6.8 PBS+1% Tween 80; details: tablet 61 mg, paddle 75 rpm, 37° C.
Method: (§1) The cumulative dissolution was measured at different time in pH6.8 PBS+1% Tween 80 and pH6.8 PBS+3% Tween 80. The dissolution results are presented in Table 24 (FIG. 23) and Table 25 (FIG. 24).
The cumulative dissolution was measured at different time in pH6.8 PBS+1% Tween 80.

[8] = Dissolution profile of tablets in pH6.8 PBS+3% Tween 80; details: tablet 61 mg, paddle 75 rpm, 37° C.
Method: as §1

[9] = Adhesiveness (material sticking to the punch); details: 30 mg, φ8 mm round tooling, 10 KN held for 30 s
Method: The punch was weighed and amount of material sticking to the punch was calculated. The compression was repeated twice and the cumulative amount, maximum amount and average amount of material sticking to the punch during the compression were recorded.

[10] = 40° C./75% RH, Sealed, 6 months
[11] = 60° C./75% RH, Sealed, 2 months
[12] = double aluminum blister, 25° C./60% RH, 3 months
[13] = double aluminum blister, 40° C./75% RH, 3 months

Compound: O=C(O)/C=C/C(=O)O.O=C(O)c1ccc2nc(-c3cc(Cl)cc(Cl)c3)oc2c1.O=C(O)c1ccc2nc(-c3cc(Cl)cc(Cl)c3)oc2c1 [Form CSV]
- Purity ([1]; 25° C./60% RH, Open, 6 months): 99.96%
- Solid Form ([1]; 25° C./60% RH, Open, 6 months): Form CSV
- Purity ([1]; 40° C./75% RH, Open, 6 months): 99.96%
- Solid Form ([1]; 40° C./75% RH, Open, 6 months): Form CSV
- Purity [1, 10]: 99.96%
- Solid Form [1, 10]: Form CSV
- Purity ([1]; 60° C./75% RH, Open, 2 months): 99.94%
- Solid Form ([1]; 60° C./75% RH, Open, 2 months): Form CSV
- Purity [1, 11]: 99.94%
- Solid Form [1, 11]: Form CSV
- Purity ([1]; Initial): 99.96%
- Solid Form ([1]; Initial): Form CSV
- chemical purity during storage ([1]; 25° C./60% RH): above 99.9%
- chemical purity during storage ([1]; 40° C./75% RH and 60° C./75% RH): above 99.9%
- crystallinity after grinding [2]: keeps substantially unchanged
- Hardness [3]: 4.85 kgf
- Tensile strength [3]: 2.86 MPa
- Weight gain ([4]; 25° C., DVS): 0.09%
- hygroscopicity ([4]; pharmacopoeia definition): non hygroscopic or almost non-hygroscopic; also recorded: non-hygroscopic or almost non-hygroscopic
- Purity % ([5]; Initial): 99.84%
- Solid Form ([5]; Initial): Form CSV
- Purity % [5, 12]: 99.87%
- Solid Form [5, 12]: Form CSV
- Purity % [5, 13]: 99.86%
- Solid Form [5, 13]: Form CSV
- stability in the formulation process (XRPD before and after) ([5]; formulation of Table 10, process of Table 11): stable in the formulation process
- Cumulative drug release (%) ([6]; 0 min): 0.0%
- Cumulative drug release (%) ([6]; 5 min): 6.6%
- Cumulative drug release (%) ([6]; 10 min): 67.6%
- Cumulative drug release (%) ([6]; 15 min): 82.8%
- Cumulative drug release (%) ([6]; 20 min): 88.4%
- Cumulative drug release (%) ([6]; 30 min): 89.1%
- Cumulative drug release (%) ([6]; 45 min): 87.4%
- Cumulative drug release (%) ([6]; 60 min): 86.4%

Compound: O=C(O)c1ccc2nc(-c3cc(Cl)cc(Cl)c3)oc2c1 [WO2016038500 Form 1, reference compound]
- crystallinity after grinding [2]: decreases
- Hardness [3]: 2.32 kgf
- Tensile strength [3]: 1.78 MPa
- Cumulative drug release (%) ([6]; 0 min): 0.0%
- Cumulative drug release (%) ([6]; 5 min): 14.0%
- Cumulative drug release (%) ([6]; 10 min): 27.3%
- Cumulative drug release (%) ([6]; 15 min): 29.1%
- Cumulative drug release (%) ([6]; 20 min): 28.1%
- Cumulative drug release (%) ([6]; 30 min): 27.6%
- Cumulative drug release (%) ([6]; 45 min): 26.8%
- Cumulative drug release (%) ([6]; 60 min): 21.8%
- Cumulative drug release in pH 6.8 PBS + 1% Tween 80 (%) ([7]; 0 min): 0.0%
- Cumulative drug release in pH 6.8 PBS + 1% Tween 80 (%) ([7]; 5 min): 4.0%
- Cumulative drug release in pH 6.8 PBS + 1% Tween 80 (%) ([7]; 10 min): 10.4%
- Cumulative drug release in pH 6.8 PBS + 1% Tween 80 (%) ([7]; 15 min): 15.6%
- Cumulative drug release in pH 6.8 PBS + 1% Tween 80 (%) ([7]; 20 min): 19.5%
- Cumulative drug release in pH 6.8 PBS + 1% Tween 80 (%) ([7]; 30 min): 25.7%
- Cumulative drug release in pH 6.8 PBS + 1% Tween 80 (%) ([7]; 45 min): 33.0%
- Cumulative drug release in pH 6.8 PBS + 1% Tween 80 (%) ([7]; 60 min): 38.4%
- Cumulative drug release in pH 6.8 PBS + 1% Tween 80 (%) ([7]; 90 min): 46.8%
- Cumulative drug release in pH 6.8 PBS + 1% Tween 80 (%) ([7]; 120 min): 53.3%
- Cumulative drug release in pH 6.8 PBS + 1% Tween 80 (%) ([7]; 150 min): 61.4%
- Cumulative drug release in pH 6.8 PBS + 3% Tween 80 (%) ([8]; 0 min): 0.0%
- Cumulative drug release in pH 6.8 PBS + 3% Tween 80 (%) ([8]; 5 min): 22.7%
- Cumulative drug release in pH 6.8 PBS + 3% Tween 80 (%) ([8]; 10 min): 33.1%
- Cumulative drug release in pH 6.8 PBS + 3% Tween 80 (%) ([8]; 15 min): 39.7%
- Cumulative drug release in pH 6.8 PBS + 3% Tween 80 (%) ([8]; 20 min): 45.0%
- Cumulative drug release in pH 6.8 PBS + 3% Tween 80 (%) ([8]; 30 min): 52.5%
- Cumulative drug release in pH 6.8 PBS + 3% Tween 80 (%) ([8]; 45 min): 60.5%
- Cumulative drug release in pH 6.8 PBS + 3% Tween 80 (%) ([8]; 60 min): 65.9%
- Cumulative drug release in pH 6.8 PBS + 3% Tween 80 (%) ([8]; 90 min): 73.0%
- Cumulative drug release in pH 6.8 PBS + 3% Tween 80 (%) ([8]; 120 min): 77.2%
- Average amount (mg) of material sticking to the punch [9]: 0.265 mg
